In PMC4890880 (ACS infectious diseases, 2016):
Like-named read-outs stand apart in the source and are kept apart here.

Tests used:
[1] = tested on: HepG2-A16-CD81EGFP cells; test: cells; conditions: Homo sapiens; for IC50: HepG2, read-out: Tox IC50; for inhibition at 50 µM: HepG2, read-out: Tox max inhibition (%) @ 50 uM; for inhibition at 10 µM: HepG2, read-out: Tox max inhibition (%) @ 10 uM
[2] = tested on: Plasmodium berghei (Pb-Luc) exoerythrocytic-stage parasites; test: microbe, parasite or virus in culture; conditions: for inhibition at 10 µM: read-out: PbLuc max inhibition (%) @ 10 uM
[3] = target: QuantiLum Recombinant Luciferase (Photinus pyralis, UniProt P08659); test: Bioluminescence quantification of compound luciferase inhibition; conditions: for Emax: read-out: LucInhib max inhibition
[4] = HepG2, read-out: HepG2 Tox% @ 50 uM rep1
[5] = HepG2, read-out: HepG2 Tox% @ 50 uM rep2
[6] = read-out: Inhibition% @ 50 uM rep1
[7] = read-out: Inhibition% @ 50 uM rep2
[8] = read-out: PbLuc IC50, dose response, unit inferred
[9] = read-out: PbLuc max inhibition (%) @ 50 uM
[10] = read-out: PbLuc IC50, dose response, 1/3 dilutions, max conc. 10 or 50 uM, unit inferred

Chain of QuantiLum Recombinant Luciferase (P08659 whole entry): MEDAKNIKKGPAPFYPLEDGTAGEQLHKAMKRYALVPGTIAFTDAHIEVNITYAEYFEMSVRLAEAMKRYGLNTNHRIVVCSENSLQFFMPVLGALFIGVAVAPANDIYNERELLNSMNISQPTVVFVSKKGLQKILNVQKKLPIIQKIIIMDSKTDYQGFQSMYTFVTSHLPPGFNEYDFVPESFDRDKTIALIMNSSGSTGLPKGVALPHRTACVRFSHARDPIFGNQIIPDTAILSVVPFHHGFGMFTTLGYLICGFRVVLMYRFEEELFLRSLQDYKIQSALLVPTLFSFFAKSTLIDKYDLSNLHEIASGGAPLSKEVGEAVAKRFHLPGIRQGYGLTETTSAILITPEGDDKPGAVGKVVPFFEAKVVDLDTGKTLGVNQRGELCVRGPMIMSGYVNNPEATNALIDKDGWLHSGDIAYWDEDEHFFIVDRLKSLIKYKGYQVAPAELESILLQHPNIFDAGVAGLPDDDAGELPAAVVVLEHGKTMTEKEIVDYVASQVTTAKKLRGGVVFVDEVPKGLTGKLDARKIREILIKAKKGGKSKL

Row | SMILES | cytotoxicity at 50 µM [1, 4] [%] | cytotoxicity at 50 µM [1, 5] [%] | IC50 [1] [µM] | inhibition at 50 µM [1] [%] | inhibition at 50 µM [2, 6] [%] | inhibition at 50 µM [2, 7] [%] | IC50 [2, 8] [µM] | inhibition at 50 µM [2, 9] [%] | IC50 [3] [µM] | Emax [3] [%] | IC50 [2, 10] [µM] | inhibition at 10 µM [1] [%] | inhibition at 10 µM [2] [%]
1 | CCOc1cc(Cl)c(C(C)NC(=O)c2ccccc2)cc1OCC (stereo not drawn) [MMV665800] | 49 | 21 | > 50 | 22 | 97 | 93 | > 50 | 89 | > 50 | 41 | – | – | –
2 | COc1ccc(-c2cc3c(SCC(=O)Nc4cc(C(F)(F)F)ccc4Cl)nccn3n2)cc1 [MMV396679] | 7 | 18 | > 50 | 14 | 102 | 103 | – | 105 | > 50 | 10 | 2.18 | – | –
3 | CCc1ccc(Nc2cc(C)nc3nc(C)nn23)cc1 [MMV007374] | 11 | 15 | > 50 | 9 | 92 | 91 | – | 101 | > 50 | 30 | 4.8 | – | –
4 | FC(F)(F)c1ccc(Nc2nnnc3ccccc23)cc1 [MMV665935] | 19 | -5 | > 50 | 7 | 102 | 101 | – | 105 | > 50 | 25 | 0.738 | – | –
5 | Cc1ccc(N2C(=O)C3C(C2=O)C2(c4ccccc4)C(=O)C3(c3ccccc3)C(c3ccccc3)=C2c2ccccc2)cc1 (stereo not drawn) [MMV666062] | 1.06 | 8.55 | > 50 | 9 | 91 | 100 | – | 102 | > 50 | 23 | 6.54 | – | –
6 | CCN1CCN(c2c(C(=O)c3ccccc3)cnc3cc(OC)c(OC)cc23)CC1 [MMV008474] | 7 | – | > 50 | 7 | 102 | 103 | – | 106 | > 50 | 22 | 1.01 | – | –
7 | CCCc1c(C)nc2ccccc2c1O [MMV666081] | 0.331 | -5.31 | > 10 | – | 101 | 103 | – | – | > 20 | 18 | 0.195 | 2.31 | 100
8 | COc1ccccc1N1C(=N)SC(=Cc2ccc(OCc3ccccc3F)cc2)C1=O [MMV007199] | 14 | – | > 50 | 24 | 102 | 101 | – | 106 | > 50 | 25 | 1.82 | – | –
9 | Oc1c2c(nc3cc(-c4ccccc4)nn13)CCCC2 [MMV008270] | -14 | -22 | > 10 | – | 103 | 104 | – | – | 0.577 | 92 | 0.147 | 8 | 106
10 | CCOc1cc2c(cc1OCC)C(c1cc(OC)c(O)cc1Cl)NCC2 (stereo not drawn) [MMV008956] | -6.54 | -15 | > 10 | – | 101 | 100 | > 10 | – | > 20 | 24 | – | 9 | 22
11 | Oc1c2c(nc3ccccc13)CCCC2 [MMV665843] | -7.59 | – | > 50 | 8 | 98 | 100 | – | 101 | > 50 | 18 | 0.894 | – | –
12 | CCCCCC(=O)N1c2ccccc2N=C2CC(c3ccc(OC)c(OC)c3)CC(O)=C2C1c1ccc(C(F)(F)F)cc1 (stereo not drawn) [MMV085583] | 14 | 28 | > 50 | 4.23 | 97 | 90 | – | 89 | > 50 | 34 | 7.1 | – | –
13 | CCOc1ccccc1CN1CCc2nc3cc(C(C)(C)C)nn3c(O)c2C1 [MMV396595] | 0.78 | – | > 50 | 8 | 99 | 100 | – | 106 | > 50 | 50 | 0.569 | – | –
14 | CCOc1ccc(CCNC(=O)c2cccs2)cc1OCC [MMV007978] | 43 | 10 | > 50 | 8 | 104 | 106 | – | 104 | > 50 | 34 | 7.94 | – | –
15 | CC(C)(C)c1ccc(C2CC3=Nc4ccccc4N(C(=O)c4ccccc4Cl)C(c4ccc(F)cc4)C3=C(O)C2)cc1 (stereo not drawn) [MMV011436] | 1.44 | – | > 50 | 19 | 93 | 94 | – | 99 | > 50 | 20 | 2.39 | – | –
16 | Cc1cc(NC(=O)c2ccc(-c3ccccc3)cc2)no1 [MMV018984] | -22 | -20 | > 10 | – | 101 | 100 | – | – | > 20 | 58 | 0.79 | 19 | 101
17 | O=[N+]([O-])c1ccc(C=NNc2nc3ccccc3[nH]2)cc1 [MMV666607] | 14 | 20 | > 10 | – | -47 | -99 | > 10 | – | > 20 | 30 | – | 5 | -2.2
18 | O=C(NC1CCCC1)c1ccc(N2CCC(NCc3cccc(C(F)(F)F)c3)CC2)cc1 [MMV666070] | -11 | 8.43 | > 50 | 10 | 98 | 96 | – | 98 | > 50 | 18 | 1.86 | – | –
19 | COc1ccc(C(C)=O)cc1N1C(=O)C2C(C1=O)C1(c3ccccc3)C(=O)C2(c2ccccc2)C(c2ccc(C)cc2)=C1c1ccc(C)cc1 (stereo not drawn) [MMV007695] | -1.58 | 13 | > 50 | 5.54 | 101 | 104 | 24.8 | 60 | > 50 | 35 | – | – | –
20 | CCOc1ccc(C=Cc2nc(=O)c3ccccc3o2)cc1 [MMV665940] | 19 | 1 | > 50 | 18 | 102 | 101 | – | 104 | 16.5 | 85 | 0.646 | – | –
21 | N=c1c2ccccc2nnn1-c1cccc(C(F)(F)F)c1 [MMV665923] | -7.5 | – | > 50 | 26 | 99 | 99 | – | 104 | > 50 | 26 | 0.789 | – | –
22 | CCOC(=O)c1cn(CC)c2cc(N(C)CCc3ccc(OC)c(OC)c3)c(F)cc2c1=O [MMV665977] | 6 | 3 | > 50 | 3.53 | 103 | 106 | – | 106 | > 50 | 40 | 1.61 | – | –
23 | N#Cc1nc(Cc2cccc3ccccc23)oc1N1CCN(C(c2ccccc2)c2ccccc2)CC1 [MMV396726] | -11 | – | > 50 | -1 | 97 | 92 | – | 100 | > 50 | 23 | 2.68 | – | –
24 | COc1cccc(NC(=O)[C@H](C(C)C)n2c(=O)[nH]c3ccccc3c2=O)c1 [MMV665878] | 12 | 4.53 | > 50 | 13 | 102 | 102 | – | 101 | > 50 | 28 | 13.2 | – | –
25 | O=C(Nc1ccc(-c2nc3ccccc3[nH]2)cc1)c1ccc(Cl)c(Cl)c1 [MMV665840] | -7 | – | > 10 | – | -57 | -66 | > 10 | – | > 20 | 22 | – | 31 | 15
26 | Cc1ccc(-c2cc3nc4c(c(O)n3n2)CCCC4)cc1 [MMV006937] | -11 | -9 | > 10 | – | 103 | 102 | – | – | 1.79 | 92 | 0.114 | 6.62 | 110
